Article PMC8154566, “Scaffold-Hopping Strategy on a Series of Proteasome Inhibitors Led to a Preclinical Candidate for the Treatment of Visceral Leishmaniasis” (Journal of Medicinal Chemistry, 2021)
Converted amounts (≈) assume the structure as drawn. Read-outs that look alike come from different tables or passages of the source.

Legend:
L. donovani amastigotes = assay: INMAC assay: intramacrophage L. donovani in differentiated THP-1 cells; format: cell-based, Leishmania donovani; conditions: for EC50 / IC50: Leishmania donovani; for EC50: THP-1; for loss of potency: INMAC, relative to compound 4; for IC50: THP-1, read-out: LdInMac pIC50 (converted)
Protocol: (§1) Intramacrophage L. donovani Assay. This assay was conducted as previously described, except for […]

THP-1 cells = assay: THP-1 host cell read-out of the INMAC assay; format: cell-based; conditions: Homo sapiens, THP-1; for IC50: supplementary csv, read-out: THP1 pIC50 (converted)
Protocol: as §1

[1] = Kinetic aqueous solubility by CLND; format: physicochemical
Protocol: We had successfully used these criteria in the hit to lead stage to identify compounds for in vivo proof-of-concept studies in another program, which subsequently led to the identification of preclinical candidate DDD853651/GSK3186899 active against CRK12.[7] […] A pharmacokinetic (PK) study was thus performed, dosed at 10 mg/kg po and 3 mg/kg iv. […] With the limited knowledge of the PK/PD drivers for the treatment of VL, we considered this to be a suitable profile for the progression of 4 into a previously reported mouse efficacy model of VL,[6],[7],[17],[18] where it was dosed twice daily at 50 mg/kg ip in order to further maximize exposure and give the best chance of achieving proof-of-concept.
(§2) Intramacrophage L. donovani Assay. This assay was conducted as previously described, except for compound exposure time, which was 96 h instead of 72 h.4
(§3) Intrinsic Clearance. This assay was conducted as previously described.5 Aqueous Solubility. This assay was conducted as previously described.6
(§4) FaSSIF Solublity. This assay was conducted as previously described.5,7
(§5) In vivo Mouse Efficacy Studies. In vivo studies were carried out as previously described, with minor modifications.7 Briefly: Control drug used was Miltefosine (30 mg/kg orally, twice daily for 5 days), vehicle used was 10% (v/v) dimethyl sulfoxide (DMSO), 40% polyethylene glycol 400, and 50% deionized water (10 Ml/kg orally, twice daily for 5 days) and mice were treated with test compound intraperitoneally (50 mg/kg twice daily for 5 days). 5
(§6) All regulated procedures on living animals were carried out under the authority of a project license issued by the Home Office under the Animals (Scientific Procedures) Act 1986, as amended in 2012 (and in compliance with EU Directive EU/2010/63). Infected animals had access to food and water ad libitum and were housed under a 12 hour light/dark photoperiod. Animals used in these experiments were female NMRI and Balb/c mice (Harlan, UK).
(§7) Test compound DDD01008714 was dosed orally (P.O.) at 10 mg free base/kg (dose volume 10 mL/kg; dose vehicle: 10% (vol/vol) dimethyl sulfoxide (DMSO), 40% polyethylene glycol 400 (PEG400) and 50% deionized water) to female NMRI mice (n = 3) or intravenously (I.V.) at 3 mg free base/kg (dose volume 5 mL/kg; dose vehicle: 10% (vol/vol) dimethyl sulfoxide (DMSO) and 90% Saline) to female Balb/c mice (n = 3). Blood samples (10 μL) where taken from the tail vein of […]

[2] = FaSSIF (fasted state simulated intestinal fluid) solubility; format: physicochemical
Protocol: as §2, §3, §4, §5, §6, §7

[3] = Mouse liver microsomal intrinsic clearance; format: in vitro ADME; conditions: for Mouse CLi: mouse liver microsomes; for Cli (mouse, ml/min/g): supplementary csv
Protocol: as §2, §3, §4, §5, §6, §7

[4] = Table 5, at least three replicates, SD ≤0.4, read-out: INMAC pEC50 (converted)
[5] = Table 5, read-out: THP-1 pEC50 (converted)
[6] = Table 5, kinetic, CLND, read-out: Aq. solubility
[7] = Table 6, at least three replicates, SD ≤0.4, read-out: INMAC pEC50 (converted)
[8] = Table 6, read-out: THP-1 pEC50 (converted)
[9] = Table 6, kinetic, CLND, read-out: Aq. solubility
[10] = Table 2, at least three replicates, SD ≤0.4, read-out: INMAC (pEC50) (converted)
[11] = Table 2, read-out: THP-1 (pEC50) (converted)
[12] = Table 2, kinetic, CLND, read-out: Aq. solubility
[13] = supplementary csv, read-out: Aqueous Solubility

## O=C(Nc1ccc(F)c(-c2cc3cc(N4CCOCC4)cnc3o2)c1)N1CCCC1 [Compound 20, N-(4-Fluoro-3-(5-morpholinofuro[2,3-b]pyridin-2-yl)phenyl)pyrrolidine-1-carboxamide]
L. donovani amastigotes; [4]
  EC50: 0.0501 µM
THP-1 cells; [5]
  EC50: > 50.1 µM
THP-1 cells
  IC50: > 50.1 µM
[1]; [6]
  solubility: 25 µM (≈ 10.3 µg/mL)
[2]; pH 6.5, Table 5
  solubility at 4 h: 7 µM (≈ 2.87 µg/mL)
[3]; Table 5
  Mouse CLi: 4.0 mL/min/g
[3]
  Cli (mouse, ml/min/g): 4 mL/min/g

## CC1(C)COCCN1c1cnc2nc(-c3cc(NC(=O)N4CCCC4)ccc3F)ccn12 [Compound 43, N-(3-(3-(3,3-Dimethylmorpholino)imidazo[1,2-a]pyrimidin-7-yl)-4-fluorophenyl)pyrrolidine-1-carboxamide]
L. donovani amastigotes; [7]
  EC50: 0.794 µM
THP-1 cells; [8]
  EC50: 50.1 µM
THP-1 cells
  IC50: 50.1 µM
[1]; [9]
  solubility: 210 µM (≈ 92.1 µg/mL)
[2]; pH 6.5, Table 6
  solubility at 4 h: 627 µM (≈ 275 µg/mL)
[2]; supplementary csv
  solubility: 630 µM (≈ 276 µg/mL)
[3]; Table 6
  Mouse CLi: 6.0 mL/min/g
[3]
  Cli (mouse, ml/min/g): 6 mL/min/g

## COc1ccc(-c2cn3cc(N4CCOCC4)cnc3n2)cc1NC(=O)N1CCCC1 [Compound 8, N-(2-Methoxy-5-(6-morpholinoimidazo[1,2-a]pyrimidin-2-yl)phenyl)pyrrolidine-1-carboxamide]
L. donovani amastigotes
  loss of potency: > 10 fold
L. donovani amastigotes; [10]
  EC50: 20 µM
THP-1 cells; [11]
  EC50: > 50.1 µM
THP-1 cells
  IC50: > 50.1 µM
[1]; [12]
  solubility: ≥ 380 µM
[2]; Table 2
  solubility: > 100 µM
[2]; pH 6.5, Table 2
  solubility at 4 h: 265 µM (≈ 112 µg/mL)
[2]; supplementary csv
  solubility: 270 µM (≈ 114 µg/mL)
[3]; Table 2
  Mouse CLi: 1.4 mL/min/g
[3]
  Cli (mouse, ml/min/g): 1.4 mL/min/g

## O=C(Nc1ccc(F)c(-c2ccn3c(N4CCNCC4)cnc3n2)c1)N1CCCC1 [Compound 35, N-(4-Fluoro-3-(3-(piperazin-1-yl)imidazo[1,2-a]pyrimidin-7-yl)phenyl)pyrrolidine-1-carboxamide]
L. donovani amastigotes
  IC50: > 50.1 µM
L. donovani amastigotes; [7]
  EC50: > 50.1 µM
THP-1 cells; [8]
  EC50: > 50.1 µM
THP-1 cells
  IC50: > 50.1 µM
[1]; [9]
  solubility: ≥ 333 µM
[1]; [13]
  solubility: ≥ 330 µM
[2]; pH 6.5, Table 6
  solubility at 4 h: 5 µM (≈ 2.05 µg/mL)
[3]; Table 6
  Mouse CLi: <0.5 mL/min/g
[3]
  Cli (mouse, ml/min/g): <0.5 mL/min/g

## O=C(Nc1ccc(F)c(-c2cn3ncc(N4CCOCC4)cc3n2)c1)N1CCCC1 [Compound 15, N-[4-Fluoro-3-(7-morpholinoimidazo[1,2-b]pyridazin-2-yl)phenyl]pyrrolidine-1-carboxamide]
L. donovani amastigotes
  IC50: > 50.1 µM
L. donovani amastigotes; [4]
  EC50: > 50.1 µM
L. donovani amastigotes; Table 5, at least three replicates, SD ≤0.4
  INMAC pEC50: inactive
THP-1 cells; [5]
  EC50: > 50.1 µM
THP-1 cells
  IC50: > 50.1 µM
[1]; [6]
  solubility: 58 µM (≈ 23.8 µg/mL)
[2]; pH 6.5, Table 5
  solubility at 4 h: 22 µM (≈ 9.03 µg/mL)
[3]; Table 5
  Mouse CLi: 2.0 mL/min/g
[3]
  Cli (mouse, ml/min/g): 2 mL/min/g

## O=C(Nc1ccc(F)c(-c2ccn3c(N4CCCCC4)cnc3n2)c1)N1CCCC1 [Compound 34, N-(4-Fluoro-3-(3-(piperidin-1-yl)imidazo[1,2-a]pyrimidin-7-yl)phenyl)pyrrolidine-1-carboxamide]
L. donovani amastigotes; [7]
  EC50: 0.501 µM
THP-1 cells; [8]
  EC50: 50.1 µM
THP-1 cells
  IC50: 50.1 µM
[1]; [9]
  solubility: 358 µM (≈ 146 µg/mL)
[1]; [13]
  solubility: 360 µM (≈ 147 µg/mL)
[2]; pH 6.5, Table 6
  solubility at 4 h: 32 µM (≈ 13.1 µg/mL)
[3]; Table 6
  Mouse CLi: 8.4 mL/min/g
[3]
  Cli (mouse, ml/min/g): 8.4 mL/min/g

## CC(C)Nc1cnc2nc(-c3cc(NC(=O)N4CCCC4)ccc3F)ccn12 [Compound 45, N-(4-Fluoro-3-(3-(isopropylamino)imidazo[1,2-a]pyrimidin-7-yl)phenyl)pyrrolidine-1-carboxamide]
L. donovani amastigotes; [7]
  EC50: 2.51 µM
THP-1 cells; [8]
  EC50: 50.1 µM
THP-1 cells
  IC50: 50.1 µM
[1]; [9]
  solubility: 124 µM (≈ 47.4 µg/mL)
[1]; [13]
  solubility: 120 µM (≈ 45.9 µg/mL)
[2]; pH 6.5, Table 6
  solubility at 4 h: 13 µM (≈ 4.97 µg/mL)
[3]; Table 6
  Mouse CLi: 5.2 mL/min/g
[3]
  Cli (mouse, ml/min/g): 5.2 mL/min/g

## CC(C)Cc1cnc2nc(-c3cc(NC(=O)N4CCCC4)ccc3F)ccn12 [Compound 31, N-(4-Fluoro-3-(3-isobutylimidazo[1,2-a]pyrimidin-7-yl)phenyl)pyrrolidine-1-carboxamide]
L. donovani amastigotes; [7]
  EC50: 0.501 µM
THP-1 cells; [8]
  EC50: 63.1 µM
THP-1 cells
  IC50: 63.1 µM
[1]; [9]
  solubility: 182 µM (≈ 69.4 µg/mL)
[1]; [13]
  solubility: 180 µM (≈ 68.7 µg/mL)
[2]; pH 6.5, Table 6
  solubility at 4 h: 178 µM (≈ 67.9 µg/mL)
[2]; supplementary csv
  solubility: 180 µM (≈ 68.7 µg/mL)
[3]; Table 6
  Mouse CLi: 15 mL/min/g
[3]
  Cli (mouse, ml/min/g): 15 mL/min/g

## O=C(Nc1cncc(-c2cn3cc(N4CCOCC4)cnc3n2)n1)N1CCCC1 [Compound 11, N-(6-(6-Morpholinoimidazo[1,2-a]pyrimidin-2-yl)pyrazin-2-yl)pyrrolidine-1-carboxamide]
L. donovani amastigotes
  loss of potency: > 10 fold
  IC50: > 50.1 µM
L. donovani amastigotes; [10]
  EC50: > 50.1 µM
THP-1 cells; [11]
  EC50: > 50.1 µM
THP-1 cells
  IC50: > 50.1 µM
[1]; [12]
  solubility: ≥ 396 µM
[1]; [13]
  solubility: ≥ 400 µM
[2]; Table 2
  solubility: > 100 µM
[2]; pH 6.5, Table 2
  solubility at 4 h: 213 µM (≈ 84 µg/mL)
[2]; supplementary csv
  solubility: 210 µM (≈ 82.8 µg/mL)
[3]; Table 2
  Mouse CLi: <0.5 mL/min/g
[3]
  Cli (mouse, ml/min/g): <0.5 mL/min/g

## O=C(Nc1ccc(F)c(-c2cc3nc(N4CCOCC4)cnc3o2)c1)N1CCCC1 [Compound 21, N-[4-Fluoro-3-(2-morpholinofuro[2,3-b]pyrazin-6-yl)phenyl]pyrrolidine-1-carboxamide]
L. donovani amastigotes; [4]
  EC50: 0.158 µM
THP-1 cells; [5]
  EC50: > 50.1 µM
THP-1 cells
  IC50: > 50.1 µM
[1]; [6]
  solubility: 70 µM (≈ 28.8 µg/mL)
[2]; pH 6.5, Table 5
  solubility at 4 h: 15 µM (≈ 6.17 µg/mL)
[3]; Table 5
  Mouse CLi: 2.8 mL/min/g
[3]
  Cli (mouse, ml/min/g): 2.8 mL/min/g

## O=C(Nc1ccc(F)c(-c2ccn3c(-c4ccccn4)cnc3n2)c1)N1CCCC1 [Compound 29, N-(4-Fluoro-3-(3-(pyridin-2-yl)imidazo[1,2-a]pyrimidin-7-yl)phenyl)pyrrolidine-1-carboxamide]
L. donovani amastigotes; [7]
  EC50: 0.398 µM
THP-1 cells; [8]
  EC50: > 50.1 µM
THP-1 cells
  IC50: > 50.1 µM
[1]; [9]
  solubility: 74 µM (≈ 29.8 µg/mL)
[2]; pH 6.5, Table 6
  solubility at 4 h: 273 µM (≈ 110 µg/mL)
[2]; supplementary csv
  solubility: 270 µM (≈ 109 µg/mL)
[3]; Table 6
  Mouse CLi: 1.8 mL/min/g
[3]
  Cli (mouse, ml/min/g): 1.8 mL/min/g

## O=C(Nc1cc(-c2cn3cc(N4CCOCC4)cnc3n2)ccc1F)N1CCCC1 [Compound 5, N-(2-Fluoro-5-(6-morpholinoimidazo[1,2-a]pyrimidin-2-yl)phenyl)pyrrolidine-1-carboxamide]
L. donovani amastigotes
  loss of potency: > 10 fold
L. donovani amastigotes; [10]
  EC50: 15.8 µM
THP-1 cells; [11]
  EC50: > 50.1 µM
THP-1 cells
  IC50: > 50.1 µM
[1]; [12]
  solubility: 256 µM (≈ 105 µg/mL)
[1]; [13]
  solubility: 260 µM (≈ 107 µg/mL)
[2]; pH 6.5, Table 2
  solubility at 4 h: 51 µM (≈ 20.9 µg/mL)
[3]; Table 2
  Mouse CLi: 0.9 mL/min/g
[3]
  Cli (mouse, ml/min/g): 0.9 mL/min/g
